# In ChEMBL document CHEMBL1201862, “PubChem BioAssay data set” (2004):
#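 1) Cells in 96-well plates. 2) Compound, 48 h, 5 concentrations. 3) Linear interpolation between surrounding doses. 4) Unreached endpoint = highest concentration. At the GI50, growth is halved.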 Activity calls are given as the source filed them. Rule as the data show it: active = GI50 up to about 1.1 µM and inactive = higher.
# Tests used:
# Test in all cases: NCI anticancer screen, dose series, 48 h
# [1] = tested on: Malme-3M
# [2] = tested on: KM12
# [3] = tested on: U-251
# [4] = tested on: OVCAR-3
# [5] = tested on: A549
# [6] = tested on: SN12C
# [7] = tested on: T47D
# [8] = tested on: UACC-257
# [9] = tested on: M14
# [10] = tested on: HCT-116
# [11] = tested on: PC-3
# [12] = tested on: TK-10
# [13] = tested on: MDA-MB-435
# [14] = tested on: SK-MEL-2
# [15] = tested on: OVCAR-5
# [16] = tested on: SF-268
# [17] = tested on: SNB-19
# [18] = tested on: HCT-15
# [19] = tested on: MDA-MB-231
# [20] = tested on: SR
SMILES,GI50 [1],GI50 [2],GI50 [3],GI50 [4],GI50 [5],GI50 [6],GI50 [7],GI50 [8],GI50 [9],GI50 [10],GI50 [11],GI50 [12],GI50 [13],GI50 [14],GI50 [15],GI50 [16],GI50 [17],GI50 [18] [µM],GI50 [19],GI50 [20]
COC(=O)C(Cc1c(C2Nc3ccccc3C2CC(NC(C)=O)C(=O)OC)[nH]c2ccccc12)NC(C)=O (stereo not given),> 100 µM (inactive),> 100 µM (inactive),> 100 µM (inactive),> 100 µM (inactive),> 100 µM (inactive),> 100 µM (inactive),> 100 µM (inactive),> 100 µM (inactive),> 100 µM (inactive),> 100 µM (inactive),> 100 µM (inactive),> 100 µM (inactive),> 100 µM (inactive),> 100 µM (inactive),> 100 µM (inactive),> 100 µM (inactive),> 100 µM (inactive),> 100,> 100 µM (inactive),
O=[N+]([O-])c1ccc(Cc2nc3cc4ccccc4cc3[nH]2)cc1C(F)(F)F,9.79 µM (inactive),13.4 µM (inactive),14.8 µM (inactive),10.7 µM (inactive),13.9 µM (inactive),18.7 µM (inactive),3.33 µM (inactive),14.1 µM (inactive),12.4 µM (inactive),13.9 µM (inactive),15.4 µM (inactive),20.2 µM (inactive),6.12 µM (inactive),20 µM (inactive),14.4 µM (inactive),13.6 µM (inactive),15.6 µM (inactive),12,,
COc1cc(C(=O)Nc2c3ccccc3nc3ccccc23)cc(OC)c1OC,> 78.3 µM (inactive),> 100 µM (inactive),> 100 µM (inactive),98.6 µM (inactive),> 100 µM (inactive),> 100 µM (inactive),> 100 µM (inactive),> 100 µM (inactive),> 53.6 µM (inactive),> 67.1 µM (inactive),> 100 µM (inactive),> 100 µM (inactive),> 74.5 µM (inactive),> 100 µM (inactive),> 100 µM (inactive),28.9 µM (inactive),> 95.1 µM (inactive),> 100,> 91.8 µM (inactive),
O=[N+]([O-])c1ccc(-c2ccc([C@H]3CC(c4cc(F)c(Cl)cc4Cl)=NN3)o2)cc1,19.2 µM (inactive),0.625 µM (active),,45.2 µM (inactive),,24.3 µM (inactive),5.48 µM (inactive),49.4 µM (inactive),13.3 µM (inactive),29.6 µM (inactive),,31.8 µM (inactive),26.7 µM (inactive),,> 100 µM (inactive),19.1 µM (inactive),> 100 µM (inactive),1.52,,0.621 µM (active)
CN(C)c1n/c(=N/Cc2ccccc2)ss1,> 10 µM (inactive),> 10 µM (inactive),> 10 µM (inactive),> 10 µM (inactive),> 10 µM (inactive),> 10 µM (inactive),> 10 µM (inactive),> 10 µM (inactive),> 10 µM (inactive),> 10 µM (inactive),> 10 µM (inactive),> 10 µM (inactive),> 10 µM (inactive),,> 10 µM (inactive),> 10 µM (inactive),> 10 µM (inactive),> 10,> 10 µM (inactive),0.587 µM (active)
O=C(O)c1ccccc1.[Ag],1.7 µM (inactive),19.5 µM (inactive),18.5 µM (inactive),12.9 µM (inactive),6.81 µM (inactive),23 µM (inactive),2.46 µM (inactive),5.11 µM (inactive),19.5 µM (inactive),6.32 µM (inactive),15.8 µM (inactive),7.11 µM (inactive),16.8 µM (inactive),14.4 µM (inactive),22.9 µM (inactive),21.8 µM (inactive),39.4 µM (inactive),21.6,,5.12 µM (inactive)
CCOC(=O)c1nc2cc(F)cc(F)c2[nH]c1=O,,> 100 µM (inactive),> 100 µM (inactive),> 100 µM (inactive),> 100 µM (inactive),> 100 µM (inactive),> 100 µM (inactive),> 100 µM (inactive),> 100 µM (inactive),> 100 µM (inactive),> 100 µM (inactive),> 100 µM (inactive),> 100 µM (inactive),> 100 µM (inactive),> 100 µM (inactive),> 100 µM (inactive),> 100 µM (inactive),> 100,> 100 µM (inactive),> 100 µM (inactive)
CSc1cc(Cl)c(C)cc1S(=O)(=O)NC(=O)NNc1ccc(F)cc1,> 100 µM (inactive),> 100 µM (inactive),> 100 µM (inactive),> 100 µM (inactive),> 100 µM (inactive),> 100 µM (inactive),> 100 µM (inactive),,> 100 µM (inactive),> 100 µM (inactive),> 100 µM (inactive),,> 100 µM (inactive),> 100 µM (inactive),> 100 µM (inactive),> 100 µM (inactive),> 100 µM (inactive),> 100,> 100 µM (inactive),> 100 µM (inactive)
CC1NC(=O)C2Cc3ccc(O)c(c3)Oc3ccc(cc3)C(O)C(C(=O)N2C)N(C)C(=O)C(C)NC(=O)C(Cc2ccc(O)cc2)N(C)C(=O)C(C)NC1=O (stereo not given),,9.68 µM (inactive),9.48 µM (inactive),25.3 µM (inactive),41 µM (inactive),> 10 µM (inactive),15.9 µM (inactive),13.6 µM (inactive),63.2 µM (inactive),9.64 µM (inactive),23.8 µM (inactive),> 100 µM (inactive),18.8 µM (inactive),8.41 µM (inactive),42.6 µM (inactive),4.03 µM (inactive),13.8 µM (inactive),> 100,11.1 µM (inactive),10.7 µM (inactive)
CCCCCc1cc2c(cc1O)CC[C@@H]1[C@@H]2CC[C@]2(C)[C@@H](O)CC[C@@H]12,19.1 µM (inactive),10.9 µM (inactive),17.6 µM (inactive),14.3 µM (inactive),19.3 µM (inactive),16.2 µM (inactive),24.5 µM (inactive),21 µM (inactive),14.9 µM (inactive),17.3 µM (inactive),16.6 µM (inactive),16.3 µM (inactive),15.7 µM (inactive),23.3 µM (inactive),18.8 µM (inactive),17.7 µM (inactive),18.8 µM (inactive),15.9,18.4 µM (inactive),
CC1=NN(c2nc(N)nc(CC#N)n2)C(C)(C)C1,,> 100 µM (inactive),> 100 µM (inactive),,,,> 100 µM (inactive),> 100 µM (inactive),> 100 µM (inactive),> 100 µM (inactive),> 100 µM (inactive),> 100 µM (inactive),> 100 µM (inactive),> 100 µM (inactive),,> 100 µM (inactive),> 100 µM (inactive),> 100,> 100 µM (inactive),> 100 µM (inactive)
C=CCNC(=S)N/N=C1\C(=O)N(CN2CCOCC2)c2ccc([N+](=O)[O-])cc21,> 100 µM (inactive),28.3 µM (inactive),18.1 µM (inactive),24.3 µM (inactive),10.4 µM (inactive),16.4 µM (inactive),17 µM (inactive),16.6 µM (inactive),17.2 µM (inactive),6.46 µM (inactive),24 µM (inactive),5.36 µM (inactive),55.1 µM (inactive),> 100 µM (inactive),56.2 µM (inactive),58.6 µM (inactive),21.6 µM (inactive),5.04,39.8 µM (inactive),
CCO/C=N\C1=C(C#N)SC2=N/C(=C\c3ccc(OC)cc3)C(=O)N21,> 100 µM (inactive),> 100 µM (inactive),75.3 µM (inactive),,> 100 µM (inactive),> 100 µM (inactive),> 100 µM (inactive),> 100 µM (inactive),> 100 µM (inactive),> 100 µM (inactive),,58.2 µM (inactive),> 100 µM (inactive),,> 100 µM (inactive),45.4 µM (inactive),83.6 µM (inactive),85.9,80.5 µM (inactive),82.8 µM (inactive)
CC(=O)Nc1ccc(C(=O)NN2C(=O)CSC2c2ccc(O)cc2)cc1 (stereo not given),,> 100 µM (inactive),> 100 µM (inactive),> 100 µM (inactive),> 100 µM (inactive),> 100 µM (inactive),> 100 µM (inactive),> 100 µM (inactive),> 100 µM (inactive),> 100 µM (inactive),,> 100 µM (inactive),> 100 µM (inactive),> 100 µM (inactive),> 100 µM (inactive),> 100 µM (inactive),> 100 µM (inactive),> 100,> 100 µM (inactive),
CSC1(CC(=O)N(C)C)C(=O)Nc2ccccc21 (stereo not given),> 100 µM (inactive),> 100 µM (inactive),> 100 µM (inactive),> 100 µM (inactive),> 100 µM (inactive),,> 100 µM (inactive),> 100 µM (inactive),> 100 µM (inactive),> 100 µM (inactive),> 100 µM (inactive),> 100 µM (inactive),> 100 µM (inactive),> 100 µM (inactive),> 100 µM (inactive),> 100 µM (inactive),> 100 µM (inactive),> 100,,> 100 µM (inactive)
